ChEMBL document CHEMBL4765450, “The components and activities analysis of a novel anticoagulant candidate dHG-5” (Eur J Med Chem, 2020)
Active and inactive are the calls of the source. The calls are words filed in the database; no cut-off is given here.

Experiments:
Rattus norvegicus [1] = assay: Antithrombotic activity in thromboplastin and stasis-induced Sprague-Dawley rat deep venous thrombosis model assessed as reduction in venous thrombosis at 2.7 mg/kg, sc administered 1 hr prior to thromboplastin addition for 20 secs followed by establishment of stasis for 20 mins relative to dHG-5; type: functional; details: time 80.33 min, 1.339 h
Plasma [2] = assay: Anticoagulation activity in human plasma assessed as drug level causing 20 times doubling of APTT by measuring activity potency of oligosaccharides multiplied by the percentage of oligosaccharides in dHG-5 preincubated for 2 mins followed by APTT reagent and measured after 3 mins by coagulometric method relative to dHG-5; type: functional; details: time 5 min
[3] = molecular target: T1, Coagulation factor VII (Homo sapiens) (UniProt P08709); assay: Inhibition of factor 7a (unknown origin) at IC50 using pefachrome factor VIIa as substrate preincubated for 1 min followed by chromogenic substrate addition and measured for 2 mins in presence of AT-III; details: time 3.0 min
T1 sequence (whole entry): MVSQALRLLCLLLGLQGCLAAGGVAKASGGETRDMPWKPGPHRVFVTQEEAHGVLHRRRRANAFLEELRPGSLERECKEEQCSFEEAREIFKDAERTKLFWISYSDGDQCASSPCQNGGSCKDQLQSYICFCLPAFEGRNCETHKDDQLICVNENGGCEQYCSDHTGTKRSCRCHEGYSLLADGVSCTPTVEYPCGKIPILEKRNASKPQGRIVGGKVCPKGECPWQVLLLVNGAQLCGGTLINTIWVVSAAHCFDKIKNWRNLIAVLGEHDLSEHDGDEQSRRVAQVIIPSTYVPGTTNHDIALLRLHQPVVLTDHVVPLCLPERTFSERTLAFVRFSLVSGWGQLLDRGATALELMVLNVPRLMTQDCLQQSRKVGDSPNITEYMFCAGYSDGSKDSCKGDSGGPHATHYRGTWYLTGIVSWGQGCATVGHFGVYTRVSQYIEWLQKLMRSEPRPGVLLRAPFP

[4] = molecular target: Prothrombin (Homo sapiens) (UniProt P00734); assay: Inhibition of factor 2a (unknown origin) at IC50 preincubated for 1 min followed by chromogenic substrate addition and measured for 2 mins in presence of AT-III; details: time 3.0 min
[5] = molecular target: Prothrombin (Homo sapiens) (UniProt P00734); assay: Inhibition of factor 2a (unknown origin) at IC50 preincubated for 1 min followed by chromogenic substrate addition and measured for 2 mins; details: time 3.0 min
Plasma [6] = assay: Induction of platelet aggregation in human platelet rich plasma at plasma peak concentration of 10 times anti-thrombosis ED50 measured after 10 mins by light transmission aggregometry
[7] = molecular target: T1, Coagulation factor VII (Homo sapiens); assay: Inhibition of factor 7a (unknown origin) at IC50 using pefachrome factor VIIa as substrate preincubated for 1 min followed by chromogenic substrate addition and measured for 2 mins; details: time 3.0 min
[8] = molecular target: T2, Coagulation factor IX/VIII (Homo sapiens) (UniProt P00740+P00451); assay: Inhibition of human citrated plasma iXase (factor 8a-factor 9a complex) assessed as activity potency of oligosaccharides multiplied by the percentage of oligosaccharides in dHG-5 preincubated for 2 mins followed by factor 10 addition and measured after 1 min by FXa chromogenic substrate SXa-11 based assay relative to dHG-5; type: protein-complex assay; details: time 3.0 min
[9] = molecular target: Prothrombin (Homo sapiens) (UniProt P00734); assay: Inhibition of factor 2a (unknown origin) at IC90 preincubated for 1 min followed by chromogenic substrate addition and measured for 2 mins in presence of AT-III; details: time 3.0 min
[10] = molecular target: T2, Coagulation factor IX/VIII (Homo sapiens); assay: Inhibition of human citrated plasma iXase (factor 8a-factor 9a complex) preincubated for 2 mins followed by factor 10 addition and measured after 1 min by FXa chromogenic substrate SXa-11 based assay relative to dHG-5; type: protein-complex assay; details: time 3.0 min
[11] = molecular target: T3, Coagulation factor XII (Homo sapiens) (UniProt P00748); assay: Inhibition of factor 12a (unknown origin) at IC50 using kallikrein chromogenic substrate preincubated for 1 min followed by chromogenic substrate addition and measured for 2 mins in presence of AT-III; details: time 3.0 min
T3 sequence (whole entry): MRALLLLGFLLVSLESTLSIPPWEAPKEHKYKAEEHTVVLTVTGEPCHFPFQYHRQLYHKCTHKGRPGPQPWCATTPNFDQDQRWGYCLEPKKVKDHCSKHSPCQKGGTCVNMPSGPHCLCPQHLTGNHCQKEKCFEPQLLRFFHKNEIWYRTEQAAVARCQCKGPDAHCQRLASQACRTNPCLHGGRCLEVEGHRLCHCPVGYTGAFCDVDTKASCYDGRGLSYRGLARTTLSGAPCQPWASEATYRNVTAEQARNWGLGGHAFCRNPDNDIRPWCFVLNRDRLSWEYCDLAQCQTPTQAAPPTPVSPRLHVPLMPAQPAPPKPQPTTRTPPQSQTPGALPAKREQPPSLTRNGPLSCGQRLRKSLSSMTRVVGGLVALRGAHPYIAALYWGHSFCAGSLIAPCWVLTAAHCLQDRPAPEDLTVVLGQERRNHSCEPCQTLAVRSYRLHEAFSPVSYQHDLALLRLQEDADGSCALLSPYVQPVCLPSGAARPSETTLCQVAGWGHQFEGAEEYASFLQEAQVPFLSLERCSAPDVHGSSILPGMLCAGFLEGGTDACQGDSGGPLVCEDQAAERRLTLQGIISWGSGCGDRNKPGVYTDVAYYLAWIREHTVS

Plasma [12] = assay: Induction of platelet aggregation in rat wash platelet at plasma peak concentration of 10 times anti-thrombosis ED50 measured after 10 mins by light transmission aggregometry
[13] = molecular target: Coagulation factor X (Homo sapiens) (UniProt P00742); assay: Inhibition of factor 10a (unknown origin) at IC50 preincubated for 1 min followed by chromogenic substrate addition and measured for 2 mins; details: time 3.0 min
[14] = molecular target: Coagulation factor XI (Homo sapiens) (UniProt P03951); assay: Inhibition of factor 11a (unknown origin) at IC50 using S-2366 as substrate preincubated for 1 min followed by chromogenic substrate addition and measured for 2 mins; details: time 3.0 min
Coagulation factor IX [15] = molecular target: T4, Coagulation factor IX (Homo sapiens, UniProt P00740); assay: Inhibition of factor 9a (unknown origin) binding to immobilized biotinylated oHG-11 assessed as activity potency of oligosaccharides multiplied by the percentage of oligosaccharides in dHG-5 by biolayer interferometry relative to dHG-5
[16] = molecular target: Coagulation factor XI (Homo sapiens) (UniProt P03951); assay: Inhibition of factor 11a (unknown origin) at IC50 using S-2366 as substrate preincubated for 1 min followed by chromogenic substrate addition and measured for 2 mins in presence of AT-III; details: time 3.0 min
Coagulation factor IX [17] = molecular target: T4, Coagulation factor IX; assay: Inhibition of factor 9a (unknown origin) binding to immobilized biotinylated oHG-11 by biolayer interferometry relative to dHG-5
[18] = molecular target: Coagulation factor X (Homo sapiens) (UniProt P00742); assay: Inhibition of factor 10a (unknown origin) at IC50 preincubated for 1 min followed by chromogenic substrate addition and measured for 2 mins in presence of AT-III; details: time 3.0 min
[19] = molecular target: T3, Coagulation factor XII (Homo sapiens); assay: Inhibition of factor 12a (unknown origin) at IC50 using kallikrein chromogenic substrate preincubated for 1 min followed by chromogenic substrate addition and measured for 2 mins; details: time 3.0 min
Rattus norvegicus [20] = assay: Antithrombotic activity in thromboplastin and stasis-induced Sprague-Dawley rat deep venous thrombosis model assessed as reduction in venous thrombosis by measuring activity potency of oligosaccharides multiplied by the percentage of oligosaccharides in dHG-5 at 2.7 mg/kg, sc administered 1 hr prior to thromboplastin addition for 20 secs followed by establishment of stasis for 20 mins relative to dHG-5; type: functional; details: time 80.33 min, 1.339 h
Plasma [21] = assay: Anticoagulation activity in human plasma assessed as drug level causing 20 times doubling of APTT preincubated for 2 mins followed by APTT reagent and measured after 3 mins by coagulometric method relative to dHG-5; type: functional; details: time 5 min
[22] = molecular target: Coagulation factor X (Homo sapiens) (UniProt P00742); assay: Inhibition of factor 10a (unknown origin) at IC90 preincubated for 1 min followed by chromogenic substrate addition and measured for 2 mins in presence of AT-III relative to control; details: time 3.0 min
[23] = molecular target: Coagulation factor XI (Homo sapiens) (UniProt P03951); assay: Inhibition of factor 11a (unknown origin) at IC90 using S-2366 as substrate preincubated for 1 min followed by chromogenic substrate addition and measured for 2 mins in presence of AT-III; details: time 3.0 min
Rattus norvegicus [24] = assay: Antithrombotic activity in thromboplastin and stasis-induced Sprague-Dawley rat deep venous thrombosis model assessed as reduction in venous thrombosis by measuring activity potency of oligosaccharides multiplied by the percentage of oligosaccharides in dHG-5 at 3.64 mg/kg, sc administered 1 hr prior to thromboplastin addition for 20 secs followed by establishment of stasis for 20 mins relative …; type: functional; details: time 80.33 min, 1.339 h
Rattus norvegicus [25] = assay: Antithrombotic activity in thromboplastin and stasis-induced Sprague-Dawley rat deep venous thrombosis model assessed as reduction in venous thrombosis at 3.64 mg/kg, sc administered 1 hr prior to thromboplastin addition for 20 secs followed by establishment of stasis for 20 mins relative to dHG-5; type: functional; details: time 80.33 min, 1.339 h

Coagulation factor XI (Homo sapiens), sequence (P03951 19-387 limits assumed): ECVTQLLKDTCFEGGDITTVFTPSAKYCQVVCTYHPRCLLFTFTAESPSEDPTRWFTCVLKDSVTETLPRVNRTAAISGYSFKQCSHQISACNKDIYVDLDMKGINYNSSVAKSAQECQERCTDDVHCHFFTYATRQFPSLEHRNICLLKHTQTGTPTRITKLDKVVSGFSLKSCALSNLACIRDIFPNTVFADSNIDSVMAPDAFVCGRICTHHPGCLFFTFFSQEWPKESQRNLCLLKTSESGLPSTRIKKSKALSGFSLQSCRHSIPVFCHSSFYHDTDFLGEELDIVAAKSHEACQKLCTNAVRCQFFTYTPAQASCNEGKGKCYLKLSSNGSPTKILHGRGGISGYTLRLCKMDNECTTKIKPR
Coagulation factor XI (Homo sapiens), sequence (P03951 388-625 limits assumed): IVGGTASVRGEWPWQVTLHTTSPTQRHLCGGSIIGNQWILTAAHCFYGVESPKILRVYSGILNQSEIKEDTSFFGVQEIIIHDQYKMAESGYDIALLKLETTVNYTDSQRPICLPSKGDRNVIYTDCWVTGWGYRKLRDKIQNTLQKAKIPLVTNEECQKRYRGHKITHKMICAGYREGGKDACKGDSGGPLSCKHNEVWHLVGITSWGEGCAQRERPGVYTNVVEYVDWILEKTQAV
Coagulation factor X (Homo sapiens), sequence (P00742 41-179 limits assumed): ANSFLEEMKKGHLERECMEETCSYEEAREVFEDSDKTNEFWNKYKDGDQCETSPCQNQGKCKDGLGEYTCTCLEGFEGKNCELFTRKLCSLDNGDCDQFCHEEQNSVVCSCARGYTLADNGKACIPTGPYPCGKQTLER
Coagulation factor X (Homo sapiens), sequence (P00742 235-488 limits assumed): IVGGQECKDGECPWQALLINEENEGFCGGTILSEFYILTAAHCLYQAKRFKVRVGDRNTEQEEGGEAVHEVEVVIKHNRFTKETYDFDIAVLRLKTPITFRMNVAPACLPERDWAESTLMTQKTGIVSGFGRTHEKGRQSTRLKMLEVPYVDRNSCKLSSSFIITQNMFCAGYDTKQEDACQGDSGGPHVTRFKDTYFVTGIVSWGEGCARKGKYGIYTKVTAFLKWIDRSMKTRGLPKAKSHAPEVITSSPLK
T4 sequence (P00740 47-191 limits assumed): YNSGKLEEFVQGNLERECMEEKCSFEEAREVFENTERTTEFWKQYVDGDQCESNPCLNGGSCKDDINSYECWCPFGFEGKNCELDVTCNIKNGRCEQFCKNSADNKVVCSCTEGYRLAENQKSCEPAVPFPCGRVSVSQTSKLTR
T4 sequence (P00740 227-461 limits assumed): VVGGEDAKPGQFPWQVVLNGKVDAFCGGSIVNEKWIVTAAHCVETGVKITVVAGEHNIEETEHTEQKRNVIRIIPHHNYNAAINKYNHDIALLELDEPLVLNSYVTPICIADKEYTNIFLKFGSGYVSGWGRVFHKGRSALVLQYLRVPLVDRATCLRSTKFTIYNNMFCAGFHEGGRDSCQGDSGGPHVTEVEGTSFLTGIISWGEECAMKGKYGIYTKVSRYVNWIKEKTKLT

Structure (SMILES): CC(=O)N[C@H]1[C@H](O[C@@H]([C@H](O[C@@H]2O[C@@H](C)[C@@H](OS(=O)(=O)[O-])[C@@H](OS(=O)(=O)O)[C@@H]2O)[C@@H](O)CO)[C@H](O)C(=O)[O-])O[C@H](COS(=O)(=O)[O-])[C@H](OS(=O)(=O)[O-])[C@@H]1O[C@@H]1O[C@H](C(=O)[O-])[C@@H](O[C@@H]2O[C@H](COS(=O)(=O)[O-])[C@H](OS(=O)(=O)[O-])[C@H](O[C@@H]3O[C@H](C(=O)[O-])[C@@H](O[C@@H]4O[C@H](COS(=O)(=O)[O-])[C@H](OS(=O)(=O)[O-])[C@H](O[C@@H]5O[C@H](C(=O)[O-])[C@@H](O[C@@H]6O[C@H](COS(=O)(=O)[O-])[C@H](OS(=O)(=O)[O-])[C@H](O[C@@H]7OC(C(=O)[O-])=C[C@H](O[C@@H]8O[C@@H](C)[C@@H](OS(=O)(=O)[O-])[C@@H](OS(=O)(=O)O)[C@@H]8O)[C@H]7O)[C@H]6NC(C)=O)[C@H](O[C@@H]6O[C@@H](C)[C@@H](OS(=O)(=O)[O-])[C@@H](OS(=O)(=O)O)[C@@H]6O)[C@H]5O)[C@H]4NC(C)=O)[C@H](O[C@@H]4O[C@@H](C)[C@@H](OS(=O)(=O)[O-])[C@@H](OS(=O)(=O)O)[C@@H]4O)[C@H]3O)[C@H]2NC(C)=O)[C@H](O[C@@H]2O[C@@H](C)[C@@H](OS(=O)(=O)[O-])[C@@H](OS(=O)(=O)O)[C@@H]2O)[C@H]1O.[Na+].[Na+].[Na+].[Na+].[Na+].[Na+].[Na+].[Na+].[Na+].[Na+].[Na+].[Na+].[Na+].[Na+].[Na+].[Na+].[Na+].[Na+]
- Ratio (Rattus norvegicus [1]): 113.95 U
- Ratio (Plasma [2]): 9.73 U
- inhibition [3]: inactive
- inhibition [4]: inactive
- inhibition [5]: inactive
- Activity (Plasma [6]): Not Active
- inhibition (active/not active) [7]: inactive
- Ratio [8]: 8.26 U
- inhibition [9]: Active
- Ratio [10]: 51.8 U
- inhibition [11]: inactive
- Activity (Plasma [12]): Not Active
- inhibition [13]: inactive
- inhibition [14]: inactive
- Ratio (Coagulation factor IX [15]): 5.72 U
- inhibition [16]: inactive
- Ratio (Coagulation factor IX [17]): 35.9 U
- inhibition [18]: inactive
- inhibition [19]: inactive
- Ratio (Rattus norvegicus [20]): 18.12 U
- Ratio (Plasma [21]): 61.09 U
- inhibition [22]: 14.2%
- inhibition [23]: Active

Structure (SMILES): CC(=O)N[C@H]1[C@H](O[C@@H]([C@H](O[C@@H]2O[C@@H](C)[C@@H](OS(=O)(=O)[O-])[C@@H](O)[C@@H]2OS(=O)(=O)O)[C@@H](O)CO)[C@H](O)C(=O)[O-])O[C@H](COS(=O)(=O)[O-])[C@H](OS(=O)(=O)[O-])[C@@H]1O[C@@H]1O[C@H](C(=O)[O-])[C@@H](O[C@@H]2O[C@H](COS(=O)(=O)[O-])[C@H](OS(=O)(=O)[O-])[C@H](O[C@@H]3O[C@H](C(=O)[O-])[C@@H](O[C@@H]4O[C@H](COS(=O)(=O)[O-])[C@H](OS(=O)(=O)[O-])[C@H](O[C@@H]5OC(C(=O)[O-])=C[C@H](O[C@@H]6O[C@@H](C)[C@@H](OS(=O)(=O)[O-])[C@@H](OS(=O)(=O)O)[C@@H]6O)[C@H]5O)[C@H]4NC(C)=O)[C@H](O[C@@H]4O[C@@H](C)[C@@H](OS(=O)(=O)[O-])[C@@H](O)[C@@H]4OS(=O)(=O)O)[C@H]3O)[C@H]2NC(C)=O)[C@H](O[C@@H]2O[C@@H](C)[C@@H](OS(=O)(=O)[O-])[C@@H](O)[C@@H]2OS(=O)(=O)O)[C@H]1O.[Na+].[Na+].[Na+].[Na+].[Na+].[Na+].[Na+].[Na+].[Na+].[Na+].[Na+].[Na+].[Na+].[Na+]
- Ratio (Plasma [2]): 4.92 U
- inhibition [3]: inactive
- inhibition [4]: inactive
- inhibition [5]: inactive
- Ratio (Rattus norvegicus [24]): 8.55 U
- inhibition (active/not active) [7]: inactive
- Ratio [8]: 5.02 U
- inhibition [9]: Active
- Ratio [10]: 28.6 U
- inhibition [11]: inactive
- inhibition [13]: inactive
- inhibition [14]: inactive
- Ratio (Coagulation factor IX [15]): 3.66 U
- inhibition [16]: inactive
- Ratio (Coagulation factor IX [17]): 20.9 U
- inhibition [18]: inactive
- inhibition [19]: inactive
- Ratio (Rattus norvegicus [25]): 48.6 U
- Ratio (Plasma [21]): 28.01 U
- inhibition [22]: 14.2%
- inhibition [23]: Active
